This is an account of results in the SangsterLogP compilation.

One may read the logP as a log measure of how a compound divides between an organic and an aqueous phase. Higher therefore signals higher lipophilicity.

Assay in one data set: not given
Consider `OC1(Cn2cncn2)CCCC1Cc1ccc(C(F)(F)F)cc1` (stereo not given), for which the lipophilicity (logP) came out at 3.07. `OC1(Cn2cncn2)CCCC1Cc1ccc(F)c(F)c1` (stereo not given) returned a logP of 2.51. The same measure, in the same setting: in the case of `OC1(Cn2cncn2)CCCC1Cc1ccc(F)cc1` (stereo not given) it was 2.39. `OC1(Cn2cncn2)CCCC1Cc1cccc(Cl)c1` (stereo not given) came in with a logP of 2.98. For `OC1(Cn2cncn2)CCCC1Cc1cccc(C(F)(F)F)c1` (stereo not given), the logP stood at 3.07. Same read-out and setting: with `OC1(Cn2cncn2)CCCC1Cc1ccc(F)cc1F` (stereo not given) the figure was 2.6. On the same count and under the same terms, in the case of `N#Cc1ccc(CC2CCCC2(O)Cn2cncn2)cc1` (stereo not given) it was 1.7; in that of `OC1(Cn2cncn2)CCCC1Cc1ccccc1Cl` (stereo not given), 2.95. The same measure, in the same setting: in the case of `OC1(Cn2cncn2)CCCC1Cc1ccc(Cl)cc1Cl` (stereo not given) it was 3.87. Consider `OC1(Cn2cncn2)CCCC1Cc1ccc(Cl)cc1F` (stereo not given), for which the logP is 3.27. The same measure, in the same setting: in the case of `OC1(Cn2cncn2)CCCC1Cc1ccc(Cl)cc1` (stereo not given) it was 3.11; in that of `OC1(Cn2cncn2)CCCC1Cc1c(F)cccc1F` (stereo not given), 2.6. The compound `OC1(Cn2cncn2)CCCC1Cc1c(F)c(F)c(F)c(F)c1F` (stereo not given) displayed a logP of 3.16.

The nature of the next data set: method code SF, from DOI: 10.1021/bk-1995-0606.ch013.
Take `CC1(C)CCC(Cc2ccc(Cl)cc2F)C1(O)Cn1cncn1` (stereo not given): the logP was 3.99. Still for that read-out and setting: in the case of `CCC1CCC(Cc2ccc(F)cc2)C1(O)Cn1cncn1` (stereo not given) it was 3.3; in that of `CC1(C)CCC(Cc2ccc(Br)cc2)C1(O)Cn1cncn1` (stereo not given), 3.99; in that of `CC(C)(C)c1ccc(CC2CCCC2(O)Cn2cncn2)cc1` (stereo not given), 3.97. On the same count and under the same terms, in the case of `CCC1CCC(Cc2ccc(Br)cc2)C1(O)Cn1cncn1` (stereo not given) it was 4.18; in that of `OC1(Cn2cncn2)CCCC1Cc1ccc(Br)cc1` (stereo not given), 3.27; in that of `CC1(C)CCC(Cc2ccc(Cl)c(O)c2)C1(O)Cn1cncn1` (stereo not given), 3.16. Same read-out and setting: in the case of `CC1(C)CCC(Cc2ccc(-c3ccccc3)cc2)C1(O)Cn1cncn1` (stereo not given) it was 4.64; in that of `OC1(Cn2cncn2)CCCC1Cc1ccc(-c2ccccc2)cc1` (stereo not given), 3.92. In the case of `Cc1ccc(CC2CCCC2(O)Cn2cncn2)cc1` (stereo not given), the logP was 2.71. The same measure, in the same setting: with `CCCOC/C(=N\c1ccc(Cl)cc1C(F)(F)F)n1ccnc1` the figure was 4.5; with `CCC1CCC(Cc2ccc(C(C)(C)C)cc2)C1(O)Cn1cncn1` (stereo not given), 4.88; with `OC1(Cn2cncn2)CCCC1Cc1ccccc1` (stereo not given), 2.26. Still for that read-out and setting: in the case of `Cc1ccc(CC2CCC(C)(C)C2(O)Cn2cncn2)cc1` (stereo not given) it was 3.43; in that of `CCC1CCC(Cc2ccc(Cl)cc2)C1(O)Cn1cncn1` (stereo not given), 4.02. On the same count and under the same terms, with `CCC1CCC(Cc2ccc(-c3ccccc3)cc2)C1(O)Cn1cncn1` (stereo not given) the figure was 4.83; with `CCC1CCC(Cc2ccc(Cl)cc2Cl)C1(O)Cn1cncn1` (stereo not given), 4.78.
